Earlier results on two compounds are cited in US9278086B2, “Combination therapy and uses thereof for treatment and prevention of parasitic infection and disease” (The Royal Institution for the Advancement of …, priority 2010, dated 2016).

The conditions of the data set: humans, oral dose 1475 mg Cys bitartrate (500 mg cysteamine base), cited from earlier work.

Consider `NCCS` [Cys bitartrate, cysteamine bitartrate], for which the Cmax (read-out: peak plasma concentration (Cmax)) is 39 µM. As for `NCCS.O=C(O)C(O)C(O)C(=O)O` (centres unmarked) [Cys bitartrate, cysteamine bitartrate], the AUCT0-Tlast was 3613 min.
